According to patent publication US8168651B2, “Protein kinase modulators” (Cylene Pharmaceuticals, Inc., priority 2008, dated 2012):
One block for each compound: values may come before it.

Tests used:
Assay in all cases: Standardized radiometric kinase assays, percentage of activity at 0.5 μM;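 further: Read-out is ³³P-labelled substrate protein phosphorylated by each kinase, captured on filters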
[1] = target: each individual kinase of the panel (Homo sapiens, UniProt O14757); conditions: for % Activity: CHK1(h)
[2] = target: each individual kinase of the panel (Homo sapiens, UniProt P00533, L858R/T790M); conditions: for % Activity: EGFR(T790M,L858R)(h)
[3] = target: each individual kinase of the panel (Homo sapiens, UniProt P00533, L861Q); conditions: for % Activity: EGFR(L861Q)(h)
[4] = target: each individual kinase of the panel (Homo sapiens, UniProt P04629); conditions: for % Activity: TrkA(h)
[5] = target: each individual kinase of the panel (Homo sapiens, UniProt P08069); conditions: for % Activity: IGF-1R(h)
[6] = target: each individual kinase of the panel (Homo sapiens, UniProt P08631); conditions: for % Activity: Hck(h)
each individual kinase of the panel (Homo sapiens, UniProt P08631), sequence (P08631 2-526 limits assumed): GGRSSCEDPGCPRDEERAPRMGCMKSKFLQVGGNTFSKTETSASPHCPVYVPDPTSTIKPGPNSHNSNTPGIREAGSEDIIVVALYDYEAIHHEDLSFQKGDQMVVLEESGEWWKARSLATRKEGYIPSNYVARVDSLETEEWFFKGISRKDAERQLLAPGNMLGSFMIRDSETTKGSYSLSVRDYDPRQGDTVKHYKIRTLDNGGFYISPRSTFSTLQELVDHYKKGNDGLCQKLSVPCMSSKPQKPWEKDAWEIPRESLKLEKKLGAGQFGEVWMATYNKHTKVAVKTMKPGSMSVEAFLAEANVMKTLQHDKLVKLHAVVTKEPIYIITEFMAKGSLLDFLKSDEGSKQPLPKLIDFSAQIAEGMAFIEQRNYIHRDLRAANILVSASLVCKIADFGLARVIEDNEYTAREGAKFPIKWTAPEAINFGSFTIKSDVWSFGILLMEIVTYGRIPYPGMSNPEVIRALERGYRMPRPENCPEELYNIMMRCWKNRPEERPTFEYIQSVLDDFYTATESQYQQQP

[7] = target: each individual kinase of the panel (Homo sapiens, UniProt P09619); conditions: for % Activity: PDGFRβ(h)
each individual kinase of the panel (Homo sapiens, UniProt P09619), sequence (P09619 33-1106 limits assumed): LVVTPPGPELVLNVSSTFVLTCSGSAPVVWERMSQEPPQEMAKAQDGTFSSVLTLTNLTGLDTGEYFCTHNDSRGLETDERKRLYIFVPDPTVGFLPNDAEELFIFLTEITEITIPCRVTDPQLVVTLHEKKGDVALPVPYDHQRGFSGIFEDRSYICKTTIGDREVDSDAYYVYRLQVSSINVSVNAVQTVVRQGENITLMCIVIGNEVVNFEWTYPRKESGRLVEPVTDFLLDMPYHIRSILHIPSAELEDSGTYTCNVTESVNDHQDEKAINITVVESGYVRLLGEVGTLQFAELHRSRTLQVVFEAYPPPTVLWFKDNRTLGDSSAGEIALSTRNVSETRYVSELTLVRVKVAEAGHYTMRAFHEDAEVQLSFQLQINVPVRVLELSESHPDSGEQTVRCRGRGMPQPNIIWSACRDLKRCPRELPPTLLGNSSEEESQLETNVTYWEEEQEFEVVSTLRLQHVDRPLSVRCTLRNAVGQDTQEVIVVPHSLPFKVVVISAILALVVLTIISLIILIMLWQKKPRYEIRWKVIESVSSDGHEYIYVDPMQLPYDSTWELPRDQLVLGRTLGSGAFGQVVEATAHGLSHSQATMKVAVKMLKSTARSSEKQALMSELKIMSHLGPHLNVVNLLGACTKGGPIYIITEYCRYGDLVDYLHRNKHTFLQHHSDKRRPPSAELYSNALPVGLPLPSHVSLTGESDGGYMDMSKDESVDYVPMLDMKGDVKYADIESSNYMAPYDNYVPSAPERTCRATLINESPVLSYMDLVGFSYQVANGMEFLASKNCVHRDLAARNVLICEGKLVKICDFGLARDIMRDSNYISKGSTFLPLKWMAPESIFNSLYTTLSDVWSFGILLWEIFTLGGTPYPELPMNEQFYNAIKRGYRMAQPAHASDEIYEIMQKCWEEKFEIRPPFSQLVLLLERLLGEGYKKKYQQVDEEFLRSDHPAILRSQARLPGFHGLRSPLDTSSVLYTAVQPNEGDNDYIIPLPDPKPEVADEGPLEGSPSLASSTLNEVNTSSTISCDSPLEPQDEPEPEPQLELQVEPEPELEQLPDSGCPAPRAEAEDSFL

[8] = target: each individual kinase of the panel (Homo sapiens, UniProt P10721, D816H); conditions: for % Activity: cKit(D816H)(h)
[9] = target: each individual kinase of the panel (Homo sapiens, UniProt P11309); conditions: for % Activity: Pim-1(h)
[10] = target: each individual kinase of the panel (Homo sapiens, UniProt P16234); conditions: for % Activity: PDGFRα(h)
each individual kinase of the panel (Homo sapiens, UniProt P16234), sequence (P16234 24-1089 limits assumed): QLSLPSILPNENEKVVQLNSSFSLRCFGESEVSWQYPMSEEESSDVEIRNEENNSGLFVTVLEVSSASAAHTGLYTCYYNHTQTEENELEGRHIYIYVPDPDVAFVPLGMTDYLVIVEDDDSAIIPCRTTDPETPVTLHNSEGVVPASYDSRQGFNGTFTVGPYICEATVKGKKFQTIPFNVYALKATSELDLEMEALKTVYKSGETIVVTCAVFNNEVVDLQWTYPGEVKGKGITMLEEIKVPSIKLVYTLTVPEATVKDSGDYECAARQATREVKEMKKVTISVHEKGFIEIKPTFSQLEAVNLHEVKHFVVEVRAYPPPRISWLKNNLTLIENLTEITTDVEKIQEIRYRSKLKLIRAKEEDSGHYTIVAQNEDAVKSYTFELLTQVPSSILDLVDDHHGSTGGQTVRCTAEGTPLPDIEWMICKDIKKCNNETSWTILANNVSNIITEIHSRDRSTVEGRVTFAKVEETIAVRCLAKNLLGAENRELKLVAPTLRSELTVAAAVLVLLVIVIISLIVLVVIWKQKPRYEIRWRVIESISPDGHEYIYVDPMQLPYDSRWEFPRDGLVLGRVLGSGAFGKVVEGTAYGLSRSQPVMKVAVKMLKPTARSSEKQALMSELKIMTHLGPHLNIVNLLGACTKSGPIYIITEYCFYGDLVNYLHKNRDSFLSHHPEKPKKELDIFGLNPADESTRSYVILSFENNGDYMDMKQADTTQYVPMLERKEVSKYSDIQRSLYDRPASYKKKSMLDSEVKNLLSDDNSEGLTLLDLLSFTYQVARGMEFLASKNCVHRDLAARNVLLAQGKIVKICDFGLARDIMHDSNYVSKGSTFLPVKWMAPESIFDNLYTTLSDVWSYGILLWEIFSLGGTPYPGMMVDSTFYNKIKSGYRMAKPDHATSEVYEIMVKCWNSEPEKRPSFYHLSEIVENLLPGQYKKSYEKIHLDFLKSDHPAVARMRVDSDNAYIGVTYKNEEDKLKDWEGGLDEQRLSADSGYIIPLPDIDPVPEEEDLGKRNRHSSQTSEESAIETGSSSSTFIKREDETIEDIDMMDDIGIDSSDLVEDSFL

[11] = target: each individual kinase of the panel (Homo sapiens, UniProt P23443); conditions: for % Activity: p70S6K(h)
[12] = target: each individual kinase of the panel (Homo sapiens, UniProt P24941); conditions: for % Activity: CDK2/cyclinA(h)
[13] = target: each individual kinase of the panel (Homo sapiens, UniProt P36888); conditions: for % Activity: Flt3(h)
each individual kinase of the panel (Homo sapiens, UniProt P36888), sequence (P36888 27-993 limits assumed): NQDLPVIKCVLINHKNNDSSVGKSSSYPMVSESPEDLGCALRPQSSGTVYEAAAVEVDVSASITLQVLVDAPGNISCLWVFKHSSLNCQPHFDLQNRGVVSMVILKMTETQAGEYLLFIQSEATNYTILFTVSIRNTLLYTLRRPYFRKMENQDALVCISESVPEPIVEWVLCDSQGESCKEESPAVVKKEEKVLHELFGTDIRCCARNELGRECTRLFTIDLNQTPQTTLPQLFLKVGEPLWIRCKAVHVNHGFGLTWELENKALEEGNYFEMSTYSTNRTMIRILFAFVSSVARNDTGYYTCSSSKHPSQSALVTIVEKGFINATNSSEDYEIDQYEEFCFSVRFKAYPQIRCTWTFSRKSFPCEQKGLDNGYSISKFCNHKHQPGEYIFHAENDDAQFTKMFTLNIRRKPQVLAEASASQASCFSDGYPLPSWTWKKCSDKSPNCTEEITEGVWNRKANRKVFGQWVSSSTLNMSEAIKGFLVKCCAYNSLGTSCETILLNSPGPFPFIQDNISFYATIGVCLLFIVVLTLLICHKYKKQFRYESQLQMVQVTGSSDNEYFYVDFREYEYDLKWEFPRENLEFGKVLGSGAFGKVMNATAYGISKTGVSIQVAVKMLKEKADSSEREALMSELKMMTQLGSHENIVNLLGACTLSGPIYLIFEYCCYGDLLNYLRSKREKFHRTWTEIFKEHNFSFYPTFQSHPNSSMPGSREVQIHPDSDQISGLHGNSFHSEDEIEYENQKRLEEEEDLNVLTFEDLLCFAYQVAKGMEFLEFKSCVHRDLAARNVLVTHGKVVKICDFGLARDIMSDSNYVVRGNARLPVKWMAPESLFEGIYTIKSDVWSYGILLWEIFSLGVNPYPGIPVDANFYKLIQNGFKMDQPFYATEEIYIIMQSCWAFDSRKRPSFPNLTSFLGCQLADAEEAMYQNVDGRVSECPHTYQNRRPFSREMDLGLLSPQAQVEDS

[14] = target: each individual kinase of the panel (Homo sapiens, UniProt P42345); conditions: for % Activity: mTOR(h)
[15] = target: each individual kinase of the panel (Homo sapiens, UniProt P51812); conditions: for % Activity: Rsk2(h)
[16] = target: each individual kinase of the panel (Homo sapiens, UniProt P54756); conditions: for % Activity: EphA5(h)
[17] = target: each individual kinase of the panel (Homo sapiens, UniProt P78368); conditions: for % Activity: CK1γ2(h)
[18] = target: each individual kinase of the panel (Homo sapiens, UniProt Q05397); conditions: for % Activity: FAK(h)
each individual kinase of the panel (Homo sapiens, UniProt Q05397), sequence (Q05397 2-1052 limits assumed): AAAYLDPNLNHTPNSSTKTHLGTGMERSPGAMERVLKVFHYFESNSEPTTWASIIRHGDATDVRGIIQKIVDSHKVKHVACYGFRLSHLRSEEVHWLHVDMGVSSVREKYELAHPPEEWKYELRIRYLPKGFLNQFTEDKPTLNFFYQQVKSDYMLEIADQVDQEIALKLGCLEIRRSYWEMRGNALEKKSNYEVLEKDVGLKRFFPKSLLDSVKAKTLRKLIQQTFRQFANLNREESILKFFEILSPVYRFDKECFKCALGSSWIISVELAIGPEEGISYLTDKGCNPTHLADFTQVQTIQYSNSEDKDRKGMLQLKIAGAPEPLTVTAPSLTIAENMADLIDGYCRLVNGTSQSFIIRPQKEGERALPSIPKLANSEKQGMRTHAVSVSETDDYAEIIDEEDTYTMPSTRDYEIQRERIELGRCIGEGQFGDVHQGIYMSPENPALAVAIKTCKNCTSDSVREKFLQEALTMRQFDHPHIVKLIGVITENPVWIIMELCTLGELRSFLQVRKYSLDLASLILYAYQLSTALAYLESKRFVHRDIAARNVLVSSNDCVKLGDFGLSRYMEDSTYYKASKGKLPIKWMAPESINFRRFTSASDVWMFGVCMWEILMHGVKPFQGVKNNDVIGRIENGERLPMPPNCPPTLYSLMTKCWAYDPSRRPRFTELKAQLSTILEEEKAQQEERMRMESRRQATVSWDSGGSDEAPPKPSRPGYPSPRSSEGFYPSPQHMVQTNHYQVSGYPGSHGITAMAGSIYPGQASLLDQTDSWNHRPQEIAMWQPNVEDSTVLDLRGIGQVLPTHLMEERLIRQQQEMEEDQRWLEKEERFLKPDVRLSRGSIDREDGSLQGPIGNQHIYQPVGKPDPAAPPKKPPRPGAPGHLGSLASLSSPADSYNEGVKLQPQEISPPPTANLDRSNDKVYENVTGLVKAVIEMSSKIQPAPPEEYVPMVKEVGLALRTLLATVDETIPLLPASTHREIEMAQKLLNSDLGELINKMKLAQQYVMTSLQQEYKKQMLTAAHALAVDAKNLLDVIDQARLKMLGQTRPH

[19] = target: each individual kinase of the panel (Homo sapiens, UniProt Q13043); conditions: for % Activity: MST1(h)
[20] = target: each individual kinase of the panel (Homo sapiens, UniProt Q14012); conditions: for % Activity: CaMKI(h)
[21] = target: each individual kinase of the panel (Homo sapiens, UniProt Q15303); conditions: for % Activity: ErbB4(h)
[22] = target: each individual kinase of the panel (Homo sapiens, UniProt Q92630); conditions: for % Activity: DYRK2(h)
[23] = target: each individual kinase of the panel (Homo sapiens, UniProt Q99683); conditions: for % Activity: ASK1(h)
[24] = target: each individual kinase of the panel (Homo sapiens, UniProt Q9HCP0); conditions: for % Activity: CK1γ1(h)
[25] = target: each individual kinase of the panel (Homo sapiens, UniProt Q9NWZ3); conditions: for % Activity: IRAK4(h)
[26] = target: each individual kinase of the panel (Homo sapiens, UniProt Q9UEE5); conditions: for % Activity: DRAK1(h)
[27] = target: each individual kinase of the panel (Homo sapiens, UniProt P49137)
[28] = target: each individual kinase of the panel (Homo sapiens, UniProt Q00534)
[29] = target: each individual kinase of the panel (Homo sapiens, UniProt Q9H4B4)

SMILES: Clc1ccccc1Nc1nc2c(-c3nnc[nH]3)cccc2c2cnccc12 [A]
% Activity [1]: 108%
% Activity [2]: 20%
% Activity [3]: 60%
% Activity [4]: 6%
% Activity [5]: 101%
% Activity [6]: 61%
% Activity [7]: 94%
% Activity [8]: 8%
% Activity [9]: 1%
% Activity [10]: 97%
% Activity [11]: 77%
% Activity [12]: 31%
% Activity [13]: 5%
% Activity [14]: 99%
% Activity [15]: 13%
% Activity [16]: 95%
% Activity [17]: 17%
% Activity [18]: 30%
% Activity [19]: 44%
% Activity [20]: 90%
% Activity [21]: 77%
% Activity [22]: −4%
% Activity [23]: 92%
% Activity [24]: 30%
% Activity [25]: 12%
% Activity [26]: 75%

SMILES: NC(=O)c1cccc2c1nc(Nc1cccc(Cl)c1)c1ccncc12 [B]
% Activity [1]: 91%
% Activity [2]: 59%
% Activity [3]: 54%
% Activity [4]: 23%
% Activity [5]: 90%
% Activity [6]: 62%
% Activity [7]: 94%
% Activity [8]: 9%
% Activity [9]: 9%
% Activity [10]: 105%
% Activity [11]: 87%
% Activity [12]: 17%
% Activity [13]: 7%
% Activity [14]: 101%
% Activity ([27]; MAPKAP-K2(h)): 104%
% Activity [15]: 40%
% Activity [16]: 93%
% Activity [17]: 63%
% Activity ([28]; CDK6/cyclinD3(h)): 63%
% Activity [18]: 106%
% Activity [19]: 80%
% Activity [20]: 62%
% Activity [21]: 77%
% Activity [22]: 5%
% Activity [23]: 93%
% Activity ([29]; Plk3(h)): 102%
% Activity [24]: 71%
% Activity [25]: 81%
% Activity [26]: 15%

Other lines, results leading:

CHK1 percentage of activity [1]: 1%
TRKA percentage of activity [4]: 10%
IGF1R percentage of activity [5]: 27%
HCK percentage of activity [6]: −11%
PDGFRB percentage of activity [7]: −10%
cKit(D816H) percentage of activity [8]: −1%
PIM1 percentage of activity [9]: 73%
PDGFRA percentage of activity [10]: −9%
p70S6K percentage of activity [11]: 20%
CDK2/cyclinE percentage of activity [12]: −13%
FLT3 percentage of activity [13]: 58%
mTOR percentage of activity [14]: 15%
MAPKAPK2 percentage of activity [27]: −7%
RPS6KA3 percentage of activity [15]: 34%
EPHA5 percentage of activity [16]: −25%
CK1 gamma 2 percentage of activity [17]: −7%
CDK6/cyclinD3 percentage of activity [28]: −8%
FAK percentage of activity [18]: 3%
MST1 percentage of activity [19]: 4%
CAMK1 percentage of activity [20]: −4%
ERBB4 percentage of activity [21]: −26%
DYRK2 percentage of activity [22]: 50%
ASK percentage of activity [23]: −16%
PLK3 percentage of activity [29]: −6%
CK1 gamma 1 percentage of activity [24]: −5%
IRAK4 percentage of activity [25]: −19%
DRAK1 percentage of activity [26]: 38%
SMILES: C#Cc1cccc(Nc2nc3cc(C(=O)O)ccc3c3cncnc23)c1 [drawing 1135]

CHK1 percentage of activity [1]: 13%
EGFR(T790M, L858R) percentage of activity [2]: 26%
EGFR(L861Q) percentage of activity [3]: 59%
TRKA percentage of activity [4]: 56%
IGF1R percentage of activity [5]: −9%
HCK percentage of activity [6]: 26%
PDGFRB percentage of activity [7]: −2%
cKit(D816H) percentage of activity [8]: 87%
PIM1 percentage of activity [9]: 75%
PDGFRA percentage of activity [10]: −2%
p70S6K percentage of activity [11]: 36%
CDK2/cyclin A percentage of activity [12]: 53%
FLT3 percentage of activity [13]: 90%
MAPKAPK2 percentage of activity [27]: −12%
RPS6KA3 percentage of activity [15]: 53%
EPHA5 percentage of activity [16]: 12%
CK1 gamma 2 percentage of activity [17]: 35%
CDK6/cyclinD3 percentage of activity [28]: 12%
FAK percentage of activity [18]: −2%
MST1 percentage of activity [19]: −3%
CAMK1 percentage of activity [20]: 1%
ERBB4 percentage of activity [21]: 17%
DYRK2 percentage of activity [22]: 55%
ASK percentage of activity [23]: −1%
PLK3 percentage of activity [29]: −1%
CK1 gamma 1 percentage of activity [24]: 10%
IRAK4 percentage of activity [25]: 4%
DRAK1 percentage of activity [26]: 65%
SMILES: C#Cc1cccc(Nc2nc3cc(C(=O)O)ccc3c3cnccc23)c1 [drawing 1137]

CHK1 percentage of activity [1]: −1%
EGFR(T790M, L858R) percentage of activity [2]: 48%
EGFR(L861Q) percentage of activity [3]: 70%
TRKA percentage of activity [4]: 62%
IGF1R percentage of activity [5]: −23%
HCK percentage of activity [6]: 28%
PDGFRB percentage of activity [7]: 3%
cKit(D816H) percentage of activity [8]: 63%
PIM1 percentage of activity [9]: 18%
PDGFRA percentage of activity [10]: 5%
p70S6K percentage of activity [11]: 8%
CDK2/cyclin A percentage of activity [12]: 53%
FLT3 percentage of activity [13]: 100%
MAPKAPK2 percentage of activity [27]: −2%
EPHA5 percentage of activity [16]: 8%
CK1 gamma 2 percentage of activity [17]: −5%
CDK6/cyclinD3 percentage of activity [28]: 6%
FAK percentage of activity [18]: 4%
MST1 percentage of activity [19]: 15%
CAMK1 percentage of activity [20]: 4%
ERBB4 percentage of activity [21]: 33%
DYRK2 percentage of activity [22]: 82%
ASK percentage of activity [23]: 2%
PLK3 percentage of activity [29]: 0%
CK1 gamma 1 percentage of activity [24]: 7%
IRAK4 percentage of activity [25]: 12%
DRAK1 percentage of activity [26]: −5%
SMILES: NC(=O)c1ccc2c(c1)nc(Nc1cccc(Cl)c1)c1ccncc12 [drawing 1138]
